Data from BindingDB's records for PubMed 36970145 (n/a, 2023).

Assay: Inhibition of human 20S immuno proteosome beta5i subunit using Suc-LLVY-AMC as substrate measured after 10 mins by fluorescence based analysis

Point of comparison: O=C(Nc1ccc(Cl)cc1)Nc1ccc2n(c1=O)C[C@@H]1C[C@H]2CN(C(=O)c2ccc3ccccc3c2)C1, IC50 8.44 µM. Against it:
- O=C(Nc1ccccc1)Nc1ccc2n(c1=O)C[C@@H]1C[C@H]2CN(C(=O)c2ccc3ccccc3c2)C1 — 3.7-fold higher, 31.6 µM
- COc1ccccc1NC(=O)Nc1ccc2n(c1=O)C[C@@H]1C[C@H]2CN(C(=O)c2ccc3ccccc3c2)C1 — 1.5-fold lower, 5.6 µM
- N#Cc1cccc(NC(=O)Nc2ccc3n(c2=O)C[C@@H]2C[C@H]3CN(C(=O)c3ccc4ccccc4c3)C2)c1 — 2.6-fold higher, 22.1 µM
